In one test the target is HDAC-2 (Homo sapiens, UniProt Q92769). Briefly: Similar assay measuring HDAC-2 inhibitory activity. In kind it is biochemical. The protocol:
(§1) The following protocol is used to assay the compounds of the invention. In the assay, the buffer used is 25 mM HEPES, pH 8.0, 137 mM NaCl, 2.7 mM KCl, 1 mM MgCl2 and the substrate is Boc-Lys(Ac)-AMC in a 50 mM stock solution in DMSO. The enzyme stock solution is 4.08 μg/mL in buffer.
(§2) The compounds are pre-incubated (2 μl in DMSO diluted to 13 μl in buffer for transfer to assay plate) with enzyme (20 μl of 4.08 μg/ml) for 10 minutes at room temperature (35 μl pre-incubation volume). The mixture is pre-incubated for 5 minutes at room temperature. The reaction is started by bringing the temperature to 37° C. and adding 15 μl substrate. Total reaction volume is 50 μl. The reaction is stopped after 20 minutes by addition of 50 μl developer, prepared as directed by Biomol (Fluor-de-Lys developer, Cat. # KI-105). A plate is incubated in the dark for 10 minutes at room temperature before reading (λEx=360 nm, λEm=470 nm, Cutoff filter at 435 nm). Similar assays are performed to measure HDAC-2 inhibitory activity

For another test, the target named is HDAC-1 (Homo sapiens, UniProt Q13547). Nature of the test: Inhibition of histone deacetylase enzymatic (HDAC-1) activity, Boc-Lys(Ac)-AMC fluorescence assay. In kind it is biochemical. Here is the method: Inhibition of Histone Deacetylase Enzymatic (HDAC-1) Activity
Chain of HDAC-1 (Q13547 whole entry): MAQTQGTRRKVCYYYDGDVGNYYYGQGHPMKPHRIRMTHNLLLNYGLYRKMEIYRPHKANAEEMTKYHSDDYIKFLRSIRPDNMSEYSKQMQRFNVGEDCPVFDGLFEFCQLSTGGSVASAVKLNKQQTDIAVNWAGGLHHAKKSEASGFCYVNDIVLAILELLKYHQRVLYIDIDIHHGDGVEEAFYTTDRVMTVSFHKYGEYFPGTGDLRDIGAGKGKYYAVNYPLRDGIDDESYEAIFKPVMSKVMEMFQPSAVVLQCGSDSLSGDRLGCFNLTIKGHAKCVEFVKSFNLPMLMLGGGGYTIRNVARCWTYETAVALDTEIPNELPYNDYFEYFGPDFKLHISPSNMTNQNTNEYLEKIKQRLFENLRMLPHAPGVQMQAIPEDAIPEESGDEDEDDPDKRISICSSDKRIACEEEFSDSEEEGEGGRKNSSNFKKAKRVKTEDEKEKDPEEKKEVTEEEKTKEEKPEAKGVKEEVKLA
as §1, §2

The next test relates to HMEC cells. Nature of the test: MTT assay on HMEC cells. In kind it is cell-based. The conditions noted are these: similar MTT assay on HMEC cells. The protocol: (§3) HCT116 cells (2000/well) are plated into 96-well tissue culture plates one day before compound treatment. Representative compounds at various concentrations were added to the cells. The cells are incubated for 72 hours at 37° C. in 5% CO2 incubator. MTT (3-[4,5-dimethylthiazol-2-yl]-2,5 diphenyl tetrazolium bromide, Sigma) is added at a final concentration of 0.5 mg/ml and incubated with the cells for 4 hours before one volume of solubilization buffer (50% N,N-dimethylformamide, 20% SDS, pH 4.7) is added onto the cultured cells. After overnight incubation, solubilized dye is quantified by calorimetric reading at 570 nM using a reference at 630 nM. OD values are converted to cell numbers according to a standard growth curve of the relevant cell line. The concentration which reduces cell numbers to 50% of that of solvent treated cells is determined as MTT IC50. A similar assay is performed on HMEC cells.
For orientation: Formazan colour is commonly taken as a measure of viable cells.

Another test deals with HCT116 cells. Briefly: MTT assay on HCT116 cells. In kind it is cell-based. The conditions noted are these: 72 hours incubation, concentration reducing cell numbers to 50% of solvent treated cells. Here is the method:
as §3

SMILES strings stand for the structures. Where only a bound is given, the exact number is not on record here.

Chain of HDAC-2 (Q92769 whole entry): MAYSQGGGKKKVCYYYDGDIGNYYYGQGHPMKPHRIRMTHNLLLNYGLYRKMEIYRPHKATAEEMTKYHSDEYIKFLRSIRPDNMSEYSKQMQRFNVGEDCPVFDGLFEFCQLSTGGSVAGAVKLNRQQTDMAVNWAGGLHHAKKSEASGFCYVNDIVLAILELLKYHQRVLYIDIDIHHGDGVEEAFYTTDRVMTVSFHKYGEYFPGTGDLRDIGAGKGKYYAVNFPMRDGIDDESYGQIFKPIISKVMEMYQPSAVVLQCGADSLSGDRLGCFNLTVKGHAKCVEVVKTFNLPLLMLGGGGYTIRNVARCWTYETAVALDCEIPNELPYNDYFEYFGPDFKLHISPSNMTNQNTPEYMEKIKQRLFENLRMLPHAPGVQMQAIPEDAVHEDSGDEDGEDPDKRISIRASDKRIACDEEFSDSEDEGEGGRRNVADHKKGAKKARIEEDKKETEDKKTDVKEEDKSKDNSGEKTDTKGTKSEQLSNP

For the compound `CN(C)CCOC(=O)N[C@H]1CCN(c2ccc(C(=O)Nc3ccccc3N)cc2)C1` [Compound 119, (S)-2-(Dimethylamino)ethyl-1-(4-(2-aminophenylcarbamoyl) -phenyl)pyrrolidin-3-ylcarbamate], the IC50 (in general, the concentration at which inhibition is half-maximal) on HDAC-2 was at most 500 nM; against HDAC-1, at most 500 nM; with HMEC cells (Homo sapiens), above 50000 nM; with HCT116 cells (Homo sapiens, HCT-116), at most 1000 nM.

For `COC(=O)N[C@H]1CCN(c2ccc(C(=O)Nc3ccccc3N)cc2)C1` [Compound 120, (S)-Methyl 1-(4-(2-aminophenylcarbamoyl)phenyl)pyrrolidin-3-yl carbamate], the IC50 was at most 500 nM at HDAC-2, at most 500 nM on HDAC-1 and above 50000 nM in the test on HMEC cells (Homo sapiens).

For `CCOC(=O)N[C@H]1CCN(c2ccc(C(=O)Nc3ccccc3N)cc2)C1` [Compound 121, (S)-Ethyl 1-(4-(2-aminophenylcarbamoyl)phenyl)pyrrolidin-3-yl carbamate], the IC50 is at most 500 nM on HDAC-2, at most 500 nM against HDAC-1, at most 50000 nM with HMEC cells and at most 1000 nM in the test with HCT116 cells.

Consider `CC(C)(C)OC(=O)N[C@H]1CCN(c2ccc(C(=O)Nc3ccccc3N)cc2)C1` [Compound 122, (S)-tert-Butyl 1-(4-(2-aminophenylcarbamoyl)phenyl)pyrrolidin-3-yl carbamate], for which the half-inhibitory concentration (IC50) against HDAC-2 is at most 500 nM; on HDAC-1, at most 500 nM; in the test on HMEC cells (Homo sapiens), at most 50000 nM; in the test with HCT116 cells (Homo sapiens, HCT-116) it was at most 1000 nM.

Turning to `CC(C)COC(=O)N[C@H]1CCN(c2ccc(C(=O)Nc3ccccc3N)cc2)C1` [Compound 123, (S)-Isobutyl 1-(4-(2-aminophenylcarbamoyl)phenyl)pyrrolidin-3-yl carbamate], the IC50 against HDAC-2 is at most 5000 nM; on HDAC-1, at most 500 nM; with HMEC cells (Homo sapiens), at most 50000 nM; in the test on HCT116 cells (Homo sapiens, HCT-116) it was at most 500 nM.

On to `Nc1ccccc1NC(=O)c1ccc(N2CC[C@H](NC(=O)OCc3ccccc3)C2)cc1` [Compound 124, (S)-Benzyl 1-(4-(2-aminophenylcarbamoyl)phenyl)pyrrolidin-3-yl carbamate], for which the IC50 on HDAC-2 is at most 100 nM; against HDAC-1, at most 500 nM; with HMEC cells (Homo sapiens), at most 5000 nM.

On to `Nc1ccccc1NC(=O)c1ccc(N2CC[C@H](NC(=O)N3CCOCC3)C2)cc1` [Compound 126, (S)-N-(1-(4-(2-Aminophenylcarbamoyl)phenyl)pyrrolidin-3-yl)morpholine-4-carboxamide], for which the IC50 at HDAC-2 is at most 1000 nM; against HDAC-1 it was at most 500 nM; in the test with HMEC cells (Homo sapiens), above 50000 nM; with HCT116 cells (Homo sapiens, HCT-116), at most 1000 nM.

Regarding `Nc1ccccc1NC(=O)c1ccc(N2CC[C@H](NC(=O)OCc3cccnc3)C2)cc1` [Compound 127, ((S)-Pyridin-3-ylmethyl-1-(4-(2-aminophenylcarbamoyl)phenyl)pyrrolidin-3-yl carbamate], the IC50 was at most 5000 nM at HDAC-2; at most 1000 nM on HDAC-1; above 50000 nM in the test with HMEC cells (Homo sapiens); at most 5000 nM in the test with HCT116 cells (Homo sapiens, HCT-116).

Take `Nc1ccccc1NC(=O)c1ccc(N2CC[C@H](NC(=O)NCc3cccnc3)C2)cc1` [Compound 128, (S)-N-(2-Aminophenyl)-4-(3-(3-(pyridin-3-ylmethyl)ureido)pyrrolidin-1-yl)benzamide]: the IC50 is at most 1000 nM at HDAC-2; at most 5000 nM at HDAC-1; at most 50000 nM in the test on HMEC cells (Homo sapiens); at most 5000 nM in the test on HCT116 cells (Homo sapiens, HCT-116).

For the compound `COCCOC(=O)N[C@H]1CCN(c2ccc(C(=O)Nc3ccccc3N)cc2)C1` [Compound 129, (S)-2-Methoxyethyl-1-(4-(2-aminophenylcarbamoyl)phenyl)pyrrolidin-3-yl carbamate], the half-inhibitory concentration (IC50) in the test with HMEC cells was at most 50000 nM; in the test with HCT116 cells it was at most 1000 nM.

For `COC(=S)N[C@H]1CCN(c2ccc(C(=O)Nc3ccccc3N)cc2)C1` [Compound 135, (S)-O-Methyl 1-(4-(2-aminophenylcarbamoyl)phenyl)pyrrolidin-3-ylcarbamothioate], the IC50 on HDAC-2 is at most 500 nM; against HDAC-1 it was at most 100 nM; with HMEC cells (Homo sapiens) it was at most 10000 nM; with HCT116 cells (Homo sapiens, HCT-116) it was at most 500 nM.

For `Nc1ccccc1NC(=O)c1ccc(N2CC[C@H](NC(=O)OCC(F)(F)F)C2)cc1` [Compound 140, (S)-2,2,2-Trifluoroethyl 1-(4-(2-aminophenylcarbamoyl)phenyl) -pyrrolidin-3-ylcarbamate], the IC50 against HDAC-2 was at most 500 nM; against HDAC-1 it was at most 500 nM; in the test on HMEC cells (Homo sapiens), at most 10000 nM; in the test with HCT116 cells (Homo sapiens, HCT-116), at most 1000 nM.

Consider `CN(C)CC(=O)N[C@H]1CCN(c2ccc(C(=O)Nc3ccccc3N)cc2)C1` [Compound 141, (S)-N-(2-Aminophenyl)-4-(3-(2-(dimethylamino)acetamido)pyrrolidin-1-yl)benzamide], for which the IC50 is at most 5000 nM against HDAC-2; at most 500 nM on HDAC-1; above 50000 nM in the test with HMEC cells (Homo sapiens); at most 5000 nM with HCT116 cells (Homo sapiens, HCT-116).

Turning to `Nc1ccccc1NC(=O)c1ccc(N2CC[C@H](NC(=O)OCc3ccncc3)C2)cc1` [Compound 142, (S)-Pyridin-4-ylmethyl 1-(4-(2-aminophenylcarbamoyl)phenyl)pyrrolidin-3-yl carbamate], the IC50 at HDAC-2 was at most 500 nM; at HDAC-1, at most 100 nM; in the test with HMEC cells (Homo sapiens), at most 50000 nM; with HCT116 cells (Homo sapiens, HCT-116), at most 1000 nM.

For `Nc1ccccc1NC(=O)c1ccc(N2CC[C@H](NC(=O)OCc3ccccn3)C2)cc1` [Compound 143, (S)-Pyridin-2-ylmethyl 1-(4-(2-aminophenylcarbamoyl)phenyl)pyrrolidin-3-yl carbamate], the IC50 at HDAC-2 was at most 500 nM; on HDAC-1, at most 500 nM; with HMEC cells (Homo sapiens) it was at most 50000 nM; in the test on HCT116 cells (Homo sapiens, HCT-116) it was at most 1000 nM.

For the compound `Nc1ccccc1NC(=O)c1ccc(N2CC[C@H](NC(=O)OCc3ccoc3)C2)cc1` [Compound 145, (S)-Furan-3-ylmethyl 1-(4-(2-aminophenylcarbamoyl)phenyl) pyrrolidin-3-yl carbamate], the IC50 on HDAC-2 is at most 500 nM; at HDAC-1, at most 100 nM; with HMEC cells (Homo sapiens) it was at most 50000 nM; with HCT116 cells (Homo sapiens, HCT-116), at most 500 nM.

As to `COC(=O)N[C@H]1CCN(c2ccc(C(=O)Nc3ccccc3N)cn2)C1` [Compound 155, (S)-Methyl 1-(5-(2-aminophenylcarbamoyl)pyridin-2-yl)pyrrolidin-3-ylcarbamate], the half-inhibitory concentration (IC50) at HDAC-2 is at most 5000 nM; at HDAC-1, at most 500 nM; in the test with HMEC cells (Homo sapiens), at most 50000 nM; in the test on HCT116 cells (Homo sapiens, HCT-116) it was at most 5000 nM.

Regarding `CCOC(=O)N[C@H]1CCN(c2ccc(C(=O)Nc3ccccc3N)cn2)C1` [Compound 156, (S)-Ethyl 1-(5-(2-aminophenylcarbamoyl)pyridin-2-yl)pyrrolidin-3-ylcarbamate], the IC50 against HDAC-2 is at most 1000 nM; against HDAC-1, at most 500 nM; with HMEC cells (Homo sapiens) it was at most 50000 nM; with HCT116 cells (Homo sapiens, HCT-116), at most 1000 nM.

For the compound `CCNC(=O)O[C@H]1CCN(c2ccc(C(=O)Nc3ccccc3N)cc2)C1` [Compound 162, (S)-1-(4-(2-Aminophenylcarbamoyl)phenyl)pyrrolidin-3-yl ethyl carbamate], the IC50 against HDAC-2 was at most 5000 nM; against HDAC-1 it was at most 500 nM; in the test on HMEC cells (Homo sapiens), above 50000 nM; in the test with HCT116 cells (Homo sapiens, HCT-116), at most 5000 nM.

As for `Nc1ccccc1NC(=O)c1ccc(N2CC[C@H](OC(=S)NCCN3CCOCC3)C2)cc1` [Compound 163, (S)-O-1-(4-(2-Aminophenylcarbamoyl)phenyl)pyrrolidin-3-yl 2-morpholinoethylcarbamothioate], the IC50 against HDAC-2 was at most 5000 nM; at HDAC-1, at most 500 nM; in the test on HMEC cells (Homo sapiens), at most 50000 nM; in the test on HCT116 cells (Homo sapiens, HCT-116), at most 5000 nM.

In the case of `COc1cc(CN(C(=O)OCc2ccccc2)[C@H]2CCN(c3ccc(C(=O)Nc4ccccc4N)cc3)C2)cc(OC)c1OC` [Compound 197, (S)-benzyl 1-(4-(2-aminophenylcarbamoyl)phenyl)-pyrrolidin-3-yl(3,4,5-trimethoxybenzyl)carbamate], the concentration for half-maximal inhibition (IC50) against HDAC-2 was at most 500 nM; at HDAC-1, at most 500 nM; with HMEC cells (Homo sapiens), above 50000 nM; in the test on HCT116 cells (Homo sapiens, HCT-116), at most 1000 nM.

As for `CC(C)OC(=O)N[C@H]1CCN(c2ccc(C(=O)Nc3ccccc3N)cc2)C1` [Compound 198, (S)-isopropyl 1-(4-(2-aminophenylcarbamoyl)phenyl)-pyrrolidin-3-ylcarbamate], the IC50 was at most 500 nM against HDAC-2; at most 500 nM against HDAC-1; at most 50000 nM with HMEC cells (Homo sapiens); at most 1000 nM with HCT116 cells (Homo sapiens, HCT-116).

The values above are taken from patent US8030344B2, “Inhibitors of histone deacetylase” (MethylGene Inc., priority 2007, dated 2011).
